Source: patent US5859026A, “Quinoline carboxylic acid” (priority 1995, dated 1999)
Converted amounts (≈) assume the structure as drawn. Read-outs that look alike come from different tables or passages of the source.

What was measured:
[1] = system: A. calcoaceticus HNR939; test: Antibacterial activity (MIC), clinically isolated strain; type: cell-based; conditions: Acinetobacter calcoaceticus; clinical isolate A. calcoaceticus HNR939, Gram -, 10^6 viable cells per ml; read-out: minimum inhibitory concentration (MIC)
Excerpt: (§1) 1. Antibacterial spectrum against standard strains and clinically isolated strains

[2] = system: S. aureus HPC308; test: as above; type: cell-based; conditions: Staphylococcus aureus; clinical isolate S. aureus HPC308, Gram +, 10^6 viable cells per ml; read-out: minimum inhibitory concentration (MIC)
Excerpt: as §1

[3] = system: K. pneumoniae HNR828; test: as above; type: cell-based; conditions: Klebsiella pneumoniae; clinical isolate K. pneumoniae HNR828, Gram -, 10^6 viable cells per ml; read-out: minimum inhibitory concentration (MIC)
Excerpt: as §1

[4] = system: S. aureusHPC292; test: as above; type: cell-based; conditions: Staphylococcus aureus, read-out: minimum inhibitory concentration (MIC)
Excerpt: as §1

[5] = system: E. faecalis HPC948; test: as above; type: cell-based; conditions: Enterococcus faecalis; clinical isolate E. faecalis HPC948, Gram +, 10^6 viable cells per ml; read-out: minimum inhibitory concentration (MIC)
Excerpt: as §1

[6] = system: K. pneumoniae HNR869; test: as above; type: cell-based; conditions: Klebsiella pneumoniae; clinical isolate K. pneumoniae HNR869, Gram -, 10^6 viable cells per ml; read-out: minimum inhibitory concentration (MIC)
Excerpt: as §1

[7] = system: K. pneumoniae HNR858; test: as above; type: cell-based; conditions: Klebsiella pneumoniae; clinical isolate K. pneumoniae HNR858, Gram -, 10^6 viable cells per ml; read-out: minimum inhibitory concentration (MIC)
Excerpt: as §1

[8] = system: A. calcoaceticus HNR916; test: as above; type: cell-based; conditions: Acinetobacter calcoaceticus; clinical isolate A. calcoaceticus HNR916, Gram -, 10^6 viable cells per ml; read-out: minimum inhibitory concentration (MIC)
Excerpt: as §1

[9] = system: E. faecalis HPC975; test: as above; type: cell-based; conditions: Enterococcus faecalis; clinical isolate E. faecalis HPC975, Gram +, 10^6 viable cells per ml; read-out: minimum inhibitory concentration (MIC)
Excerpt: as §1

[10] = system: S. marcescens HNR1767; test: as above; type: cell-based; conditions: Serratia marcescens; clinical isolate S. marcescens HNR1767, Gram -, 10^6 viable cells per ml; read-out: minimum inhibitory concentration (MIC)
Excerpt: as §1

[11] = system: E. cloacae HNR1939; test: as above; type: cell-based; conditions: Enterobacter cloacae; clinical isolate E. cloacae HNR1939, Gram -, 10^6 viable cells per ml; read-out: minimum inhibitory concentration (MIC)
Excerpt: as §1

[12] = system: S. marcescens HNR1792; test: as above; type: cell-based; conditions: Serratia marcescens; clinical isolate S. marcescens HNR1792, Gram -, 10^6 viable cells per ml; read-out: minimum inhibitory concentration (MIC)
Excerpt: as §1

[13] = system: S. marcescens HNR1544; test: as above; type: cell-based; conditions: Serratia marcescens; clinical isolate S. marcescens HNR1544, Gram -, 10^6 viable cells per ml; read-out: minimum inhibitory concentration (MIC)
Excerpt: as §1

[14] = system: E. cloacae HNR1941; test: as above; type: cell-based; conditions: Enterobacter cloacae; clinical isolate E. cloacae HNR1941, Gram -, 10^6 viable cells per ml; read-out: minimum inhibitory concentration (MIC)
Excerpt: as §1

[15] = system: A. calcoaceticus HNR904; test: as above; type: cell-based; conditions: Acinetobacter calcoaceticus; clinical isolate A. calcoaceticus HNR904, Gram -, 10^6 viable cells per ml; read-out: minimum inhibitory concentration (MIC)
Excerpt: as §1

[16] = system: E. faecalis HPC984; test: as above; type: cell-based; conditions: Enterococcus faecalis; clinical isolate E. faecalis HPC984, Gram +, 10^6 viable cells per ml; read-out: minimum inhibitory concentration (MIC)
Excerpt: as §1

[17] = system: E. cloacae HNR1946; test: as above; type: cell-based; conditions: Enterobacter cloacae; clinical isolate E. cloacae HNR1946, Gram -, 10^6 viable cells per ml; read-out: minimum inhibitory concentration (MIC)
Excerpt: as §1

[18] = system: S. aureus HPC527; test: as above; type: cell-based; conditions: Staphylococcus aureus; clinical isolate S. aureus HPC527, Gram +, 10^6 viable cells per ml; read-out: minimum inhibitory concentration (MIC)
Excerpt: as §1

[19] = system: E. coli NIHJ JC-2; test: Antibacterial activity (MIC), standard strain; type: cell-based; conditions: Escherichia coli, NIHJJC2; standard strain E. coli NIHJ JC-2, Gram -, 10^6 viable cells per ml; read-out: minimum inhibitory concentration (MIC)
Excerpt: as §1

[20] = system: S. marcescens IAM 1184; test: Antibacterial activity (MIC), standard strain; type: cell-based; conditions: Serratia marcescens, IAM1184; standard strain S. marcescens IAM 1184, Gram -, 10^6 viable cells per ml; read-out: minimum inhibitory concentration (MIC)
Excerpt: as §1

[21] = system: K. pneumoniae PCI-602; test: Antibacterial activity (MIC), standard strain; type: cell-based; conditions: Klebsiella pneumoniae, PCI602; standard strain K. pneumoniae PCI-602, Gram -, 10^6 viable cells per ml; read-out: minimum inhibitory concentration (MIC)
Excerpt: as §1

[22] = system: S. aureus FDA 209P JC-1; test: Antibacterial activity (MIC), standard strain; type: cell-based; conditions: Staphylococcus aureus, FDA209P; standard strain S. aureus FDA 209P JC-1, Gram +, 10^6 viable cells per ml; read-out: minimum inhibitory concentration (MIC)
Excerpt: as §1

[23] = system: E. colacae 963; test: Antibacterial activity (MIC), standard strain; type: cell-based; conditions: Enterobacter cloacae; standard strain E. colacae 963, Gram -, 10^6 viable cells per ml; read-out: minimum inhibitory concentration (MIC)
Description: as §1
Antibacterial activities (minimum inhibitory concentration: MIC) were determined according to the standard method of the Japan Society of Chemotherapy (Chemotherapy (Tokyo), 29 (1), 76, 1981) by using standard strains and strains isolated from patients of infectious disease (clinically isolated strains) and applying 10^6 viable cells per ml. […].

[24] = system: Male Wistar rats; test: Induction of convulsions, intracerebroventricular (i.c.v.) administration; type: in vivo, rat; conditions: 30 minutes after i.p. fenbufen 50 mg/kg, observed at least 4 hours
Description: 2) Intracerebroventricular (i.c.v.) administration
Male Wistar rats (weighing 180-220 g) were anesthetized with sodium pentobarbital at 45 mg/kg, i.p., and then the head of the rat was fixed in a stereotaxic apparatus. A stainless steel guide cannula for intracerebroventricular injectionin in 0.6 mm diameter was implanted as a guide cannula so as to be positioned at 1.5 mm above the left lateral cerebroventricle (A:6.2,R:1.0,H:+1.0) according to the brain atlas of De Groot (1959). The guide cannula was fixed by using a dental cement, and then closed with a stainless steel stylet in 0.3 mm diameter. Potassium penicillin G (10,000 units) were subcutaneously administered to prevent an infection. The rats were subjected to the experiments after recovery time for several days from the surgery.
For the measurement of the induction of convulsions, 50 mg/kg of fenbufen was intraperitoneally administered, and then the test compound was intracerebroventricularly administered after 30 minutes from the administration of fenbufen by means of a stainless steel cannula in 0.3 mm diameter that was connected with a polyethylene catheter and adjusted so as to be 1.5 mm longer than the guide cannula for an administration at an accurate position of cerebroventricle (H:+1.0). […] After the completion of the above experiment, the administered positions were confirmed by intraventricularly injecting 10 μl of 1% Evans blue to each of the rats, and followed by sectioning the brains.

[25] = system: Male Hartley guinea pigs; test: Phototoxicity; type: in vivo, guinea pig; conditions: 10 mg/kg intravenous, UV exposure 90 minutes, observed 24 hours after irradiation; animals with erythemas/animals tested
Description: Male Hartley guinea pigs were intravenously administered with test compounds at a dose of 10 mg/kg, and then immediately exposed to WVA on their backs for 90 minutes. Erythemas on the UV irradiated skin were observed 24 hours after the irradiation.

[26] = system: male ICR mice; test: Induction of convulsions, intraperitoneal (i.p.) administration; type: in vivo, mouse; conditions: 100 mg/kg i.p., 30 minutes after oral fenbufen 100 mg/kg
Excerpt: 4. The induction of convulsions
1) Intraperitoneal (i.p.) administration

[27] = animals with convulsions/animals tested

SMILES | MIC [1] [µg/mL] | MIC [2] [µg/mL] | MIC [3] [µg/mL] | MIC [5] [µg/mL] | MIC [6] [µg/mL] | MIC [7] [µg/mL] | MIC [8] [µg/mL] | MIC [9] [µg/mL] | MIC [10] [µg/mL] | MIC [11] [µg/mL] | MIC [12] [µg/mL] | MIC [13] [µg/mL] | MIC [14] [µg/mL] | MIC [15] [µg/mL] | MIC [16] [µg/mL] | MIC [17] [µg/mL] | MIC [18] [µg/mL] | MIC [19] [µg/mL] | MIC [20] [µg/mL] | MIC [21] [µg/mL] | also measured
CC[C@H]1CN(c2c(F)c(N)c3c(=O)c(C(=O)O)cn(C4CC4)c3c2C)C[C@H]1N [Compound 2, 5-amino-7-((3S,4S)-3-amino-4-ethyl-1-pyrrolidinyl)-1-cyclopropyl-6-fluoro-1,4-dihydro-8-methyl-4-oxoquinoline-3-carboxylic acid] | 0.2 (≈ 0.515 µM) | 0.1 (≈ 0.257 µM) | 3.13 (≈ 8.06 µM) | 0.2 (≈ 0.515 µM) | 1.56 (≈ 4.02 µM) | 0.2 (≈ 0.515 µM) | 0.012 (≈ 0.0309 µM) | 0.78 (≈ 2.01 µM) | 12.5 (≈ 32.2 µM) | 0.2 (≈ 0.515 µM) | 1.56 (≈ 4.02 µM) | 0.05 (≈ 0.129 µM) | 6.25 (≈ 16.1 µM) | 3.13 (≈ 8.06 µM) | 0.05 (≈ 0.129 µM) | 0.2 (≈ 0.515 µM) | 0.006 (≈ 0.0154 µM) | 0.012 (≈ 0.0309 µM) | 0.1 (≈ 0.257 µM) | ≤ 0.0015 | MIC ([4]; clinical isolate S. aureus HPC292, Gram +, 10^6 viable cells per ml): 0.78 µg/mL (≈ 2.01 µM); MIC [22]: 0.006 µg/mL (≈ 0.0154 µM); MIC [23]: 0.025 µg/mL (≈ 0.0644 µM)
Cc1c(N2CCNCC2)c(F)c(N)c2c(=O)c(C(=O)O)cn(C3CC3)c12 [Reference Compound B, 5-amino-1-cyclopropyl-6-fluoro-1,4-dihydro-8-methyl-4-oxo-7-piperazinylquinoline-3-carboxylic acid, reference compound] | 3.13 (≈ 8.69 µM) | 6.25 (≈ 17.3 µM) | 12.5 (≈ 34.7 µM) | 6.25 (≈ 17.3 µM) | 6.25 (≈ 17.3 µM) | 0.78 (≈ 2.16 µM) | 0.1 (≈ 0.277 µM) | 12.5 (≈ 34.7 µM) | 50 (≈ 139 µM) | 0.78 (≈ 2.16 µM) | 6.25 (≈ 17.3 µM) | 0.1 (≈ 0.277 µM) | 25 (≈ 69.4 µM) | 50 (≈ 139 µM) | 0.39 (≈ 1.08 µM) | 0.78 (≈ 2.16 µM) | 0.1 (≈ 0.277 µM) | 0.05 (≈ 0.139 µM) | 0.2 (≈ 0.555 µM) | 0.006 (≈ 0.0166 µM) | Induction of convulsions, i.c.v. (in words) [24]: convulsions were observed in all of the animals (each three animals); Induction of convulsion, i.c.v. (number of rats with convulsions) [24, 27]: 3/3; Phototoxicity (number of guinea pigs with erythemas) [25]: 0/5; MIC [4]: 25 µg/mL (≈ 69.4 µM); MIC [22]: 0.1 µg/mL (≈ 0.277 µM); MIC [23]: 0.1 µg/mL (≈ 0.277 µM); Induction of convulsions, i.p. (in words) [26]: inducing actions of convulsions were not noticeable; sedative symptoms considered as precursory symptoms of convulsions, i.p. [26]: All of the animals exhibited sedative symptoms; Induction of convulsion, i.p. (number of mice with convulsions) [26, 27]: 0/6; sedative symptoms considered as precursory symptoms of convulsions, i.p. ([26]; listed as reference compound B): all of the animals exhibited sedative symptoms
